Measurements taken from paper PMC8991960, “A Bivalent Activatable Fluorescent Probe for Screening and Intravital Imaging of Chemotherapy‐Induced Cancer Cell Death” (Angewandte Chemie (International Ed. in English), 2021).
Starred links: 1 amine or outer side, 2 acyl side, 3 side chain; linkers in the order of their positions; H or OH if unused. Non-standard residues stand in square brackets, D forms with d. Residues, ends and D or L forms follow the SMILES beside them. X1 = CC1=CC(C)=[N+]2C1=C(c1cccc(-c3[nH]c4ccccc4c3C[C@H](N[*:1])C(=O)[*:2])c1)c1ccc(-c3ccc(C)s3)n1[B-]2(F)F

Tests used:
[1] = Stability analysis in mouse serum; type: in vitro ADME; conditions: mouse serum vs PBS, 24 h, 37 °C, 500 rpm; 25 µM (Figure S14) or 50 µM (method); HPLC after CH3CN protein precipitation, and fluorescence (exc 520 nm)
Source text: Optical intravital imaging is increasingly used for the preclinical evaluation of anticancer drugs in vivo. Although imaging modalities like computed tomography, positron emission tomography and magnetic resonance imaging can help to visualise whole intact organs in a non‐invasive manner,[26] they lack the spatiotemporal resolution needed to study dynamic interactions between individual tumour and stromal cells. This feature is critical to understand the mechanism of action of anticancer drugs and how they can affect interactions between cancer cells and immune cells in the tumour microenvironment.[27] Intravital imaging heavily relies on the acquisition of fluorescence signals using multiphoton microscopy, which provides cellular resolution with deep tissue penetration (≈500 μm) and minimal photodamage.[28] […] First, we analysed the chemical stability of Apotracker Red for in vivo studies by incubating the probe in mouse serum. […] When primary tumours measured around 0.5–1 cm in diameter, we administered cisplatin intraperitoneally (10 mg kg^−1). […]
fluorescence emission of Apotracker Red before and after incubation in mouse serum and […]
Fluorescence spectra were recorded after excitation at 520 nm. […]
Lipid layer assays . […] The LoD was calculated using the equation LoD = (3 × σ)/k, where σ is the standard […]

MCF7 cells = experiment: Cell viability (TACS MTT cell proliferation assay); type: cell-based, human; conditions: MCF7, different concentrations, 3 h, n=5
Method: (§1) Figure S15. Cell viability experiments (TACS® MTT cell proliferation assay) after incubation of Apotracker Red in breast cancer cell lines (a: MCF7 cells, b: MDA-MB-231 cells) at different concentrations for 3 h. Data presented as means ± SD (n=5). P values obtained from one- way ANOVA using multiple comparisons (ns for p>0.05).
(§2) Figure S16. Quantification of E GFP+ macrophages in tumours from untreated and cisplatin-treated mice by time- lapse imaging on a spinning disk confocal microscope (λexc: 488 nm). Data presented as means ± SD of 8 random areas in 2- 3 mice per group (untreated or treated with 10 μg g-1 cisplatin for 72 h). […]

MDA-MB-231 cells = experiment: Cell viability (TACS MTT cell proliferation assay); type: cell-based, human; conditions: MDA-MB-231, different concentrations, 3 h, n=5
Method: as §1, §2

In the case of CC1=CC(C)=[N+]2C1=C(c1cccc(-c3[nH]c4ccccc4c3C[C@@H]3NC(=O)[C@H](Cc4ccccc4)NC(=O)[C@H](Cc4c[nH]c5ccccc45)NC(=O)[C@H](CCCCN)NC(=O)[C@H](CCCCN)NC(=O)[C@H](CCCNC(=N)N)NC(=O)CNC3=O)c1)c1ccc(-c3ccc(C)s3)n1[B-]2(F)F [Apotracker Red] (cyclo(F[X1]GRKKW)), the “Proteolytic stability in mouse serum” value [1] was “good proteolytic stability for up to 24 h”, the “Cell toxicity (MTT)” value (MCF7 cells) was “did not cause cell toxicity” and the “Cell toxicity (MTT)” value (MDA-MB-231 cells) was “did not cause cell toxicity”.
